Where two headings read alike, the source gives them in different places.
Experiments:
UGT1A1 = molecular target: T1, UGT1A1 (Homo sapiens, UniProt P22309); assay: Inhibition of UGT1A1 (β-estradiol-3-O-glucuronidation); settings: for Inhibitory type: UGT1A1, best model by smallest AIC and SC; for activity at 10 µM: human
T1 sequence (P22309 26-533): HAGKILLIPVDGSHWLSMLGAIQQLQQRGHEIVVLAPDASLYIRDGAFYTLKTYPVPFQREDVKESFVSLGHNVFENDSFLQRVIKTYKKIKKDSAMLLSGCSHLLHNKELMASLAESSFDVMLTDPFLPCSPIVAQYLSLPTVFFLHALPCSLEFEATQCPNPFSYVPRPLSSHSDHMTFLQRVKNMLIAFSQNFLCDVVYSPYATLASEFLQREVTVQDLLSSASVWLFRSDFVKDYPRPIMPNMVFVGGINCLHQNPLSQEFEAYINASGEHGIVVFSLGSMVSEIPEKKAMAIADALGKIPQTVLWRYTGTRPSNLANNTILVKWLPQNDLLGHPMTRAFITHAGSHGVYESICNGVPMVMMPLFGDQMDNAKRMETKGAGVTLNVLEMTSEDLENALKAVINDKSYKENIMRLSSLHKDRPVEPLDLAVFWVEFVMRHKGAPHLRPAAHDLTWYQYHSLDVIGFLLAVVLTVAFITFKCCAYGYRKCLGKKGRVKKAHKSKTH
Method: (§1) The final volume of solvent in incubations was 1%. In addition, emodin, atazanavir, and diclofenac were considered as positive controls for UGT1A10, UGT1A1, and UGT2B7, respectively.
(§2) Competitive inhibition, non-competitive inhibition, and mixed-type inhibition models were used to estimate the Ki values by nonlinear regression based on Eqs 6–8, respectively.

UGT1A10 = molecular target: T2, UGT1A10 (Homo sapiens, UniProt Q9HAW8); assay: Inhibition of UGT1A10 (4-methylumbelliferone-O-glucuronidation); settings: for Inhibitory type: best model by smallest AIC and SC; for activity at 10 µM: human, expressed human UGT1A10 enzyme, probe 4-methylumbelliferone (4-MU)
T2 sequence (Q9HAW8 26-530): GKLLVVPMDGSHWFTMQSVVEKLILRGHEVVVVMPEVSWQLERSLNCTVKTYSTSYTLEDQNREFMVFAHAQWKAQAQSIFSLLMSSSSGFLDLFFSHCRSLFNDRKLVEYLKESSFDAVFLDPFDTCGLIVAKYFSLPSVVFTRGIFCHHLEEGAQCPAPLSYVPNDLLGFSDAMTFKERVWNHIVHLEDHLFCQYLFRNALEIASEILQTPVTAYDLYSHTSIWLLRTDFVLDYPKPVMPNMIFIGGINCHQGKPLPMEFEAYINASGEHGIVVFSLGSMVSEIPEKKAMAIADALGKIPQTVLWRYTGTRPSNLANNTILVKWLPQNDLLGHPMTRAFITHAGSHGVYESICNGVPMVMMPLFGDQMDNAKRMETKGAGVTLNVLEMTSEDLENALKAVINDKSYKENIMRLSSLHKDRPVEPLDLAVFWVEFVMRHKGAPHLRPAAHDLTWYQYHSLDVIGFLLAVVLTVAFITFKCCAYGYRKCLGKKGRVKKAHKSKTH
Method: as §1, §2

UGT2B7 = molecular target: T3, UGT2B7 (Homo sapiens, UniProt P16662); assay: Inhibition of UGT2B7 (zidovudine-N-glucuronidation); settings: for Inhibitory type: best model by smallest AIC and SC; for activity at 10 µM: human, probe zidovudine (AZT)
T3 sequence (P16662 24-529): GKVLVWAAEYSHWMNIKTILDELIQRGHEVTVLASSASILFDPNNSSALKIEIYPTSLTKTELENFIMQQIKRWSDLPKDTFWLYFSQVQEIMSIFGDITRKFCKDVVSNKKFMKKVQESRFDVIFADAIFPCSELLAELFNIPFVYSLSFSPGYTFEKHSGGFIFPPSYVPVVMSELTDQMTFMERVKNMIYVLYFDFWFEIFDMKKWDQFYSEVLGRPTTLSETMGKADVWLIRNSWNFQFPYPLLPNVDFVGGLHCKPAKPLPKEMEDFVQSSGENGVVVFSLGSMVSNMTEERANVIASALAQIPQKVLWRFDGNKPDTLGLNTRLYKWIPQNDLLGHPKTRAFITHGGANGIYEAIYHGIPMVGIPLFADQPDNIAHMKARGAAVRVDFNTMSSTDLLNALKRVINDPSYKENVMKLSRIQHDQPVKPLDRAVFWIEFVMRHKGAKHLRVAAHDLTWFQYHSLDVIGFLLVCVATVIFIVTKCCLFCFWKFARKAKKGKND
Method: as §1, §2

[1] = human UGT1A1 enzyme, probe β-estradiol (E2)
[2] = UGT2B7 enzyme (optimized UGT2B7 incubation system)

With `O=C(C=Cc1ccc(O)c2c1C(C(=O)OC(Cc1ccc(O)c(O)c1)C(=O)O)C(c1ccc(O)c(O)c1)O2)OC(Cc1ccc(O)c(O)c1)C(=O)O` (stereo not shown) [Salvianolic acid B, salvianolic acid B] the IC50 (UGT1A1) was 3780 ± 530 nM, the Ki (UGT1A1) was 2160 ± 210 nM and the Inhibitory type (UGT1A1) was “Competitive”. It also gave an activity at 10 µM (UGT1A1) of 36.2%.
In the case of `COc1ccc(-c2oc3c(CC=C(C)C)c(O[C@@H]4O[C@H](CO)[C@@H](O)[C@H](O)[C@H]4O)cc(O)c3c(=O)c2O)cc1` [Icariside I, icariside I], the IC50 (UGT1A10) is reported as 1390 ± 330 nM, the Ki (UGT1A10) is reported as 1920 ± 260 nM and the Inhibitory type (UGT1A10; UGT1A10) is reported as “Competitive”. For the same compound, the activity at 10 µM (UGT1A10) was 26.5%, the IC50 (UGT1A1) was 3280 ± 1200 nM and the Ki (UGT1A1) was 6010 ± 470 nM. The Inhibitory type (UGT1A1) was “Non-competitive” and the activity at 10 µM (UGT1A1; [1]) was 35.5%.
Compound `COC(=O)N[C@H](C(=O)N[C@@H](Cc1ccccc1)[C@@H](O)CN(Cc1ccc(-c2ccccn2)cc1)NC(=O)[C@@H](NC(=O)OC)C(C)(C)C)C(C)(C)C` [atazanavir, reference compound] has an activity at 10 µM (UGT1A1; expressed human UGT1A1 enzyme, probe β-estradiol (E2)) of 4.38%.
For icariside II, the Inhibitory type (UGT2B7; UGT2B7) was “Competitive”, the Inhibitory type (UGT1A10; UGT1A10) was “Competitive” and the Inhibitory type (UGT1A1) was “Competitive”.
With `CC(C)=CCc1c(O)ccc(C(=O)/C=C/c2ccc(O)cc2)c1O` [Isobavachalcone, isobavachalcone] the IC50 (UGT2B7) was 1380 ± 220 nM, the Ki (UGT2B7) was 300 ± 70 nM and the Inhibitory type (UGT2B7; UGT2B7) was “Competitive”. The activity at 10 µM (UGT2B7; [2]) was 0%, the IC50 (UGT1A10) was 2800 ± 300 nM and the Ki (UGT1A10) was 1660 ± 190 nM. For the same compound, the Inhibitory type (UGT1A10; UGT1A10) was “Non-competitive”, the activity at 10 µM (UGT1A10) was 8.61% and the IC50 (UGT1A1) was 1650 ± 150 nM. The Ki (UGT1A1) was 1200 ± 120 nM, the Inhibitory type (UGT1A1) was “Non-competitive” and the activity at 10 µM (UGT1A1; [1]) was 3.97%.
`O=C(O)Cc1ccccc1Nc1c(Cl)cccc1Cl` [diclofenac, reference compound] gave an activity at 10 µM (UGT2B7; expressed human UGT2B7 enzyme) of 53.9%.
With `CC(C)=CCc1cc(C(=O)/C=C/c2ccc(O)cc2)c(O)cc1O` [Bavachalcone, bavachalcone] the IC50 (UGT2B7) was 4650 ± 520 nM, the Ki (UGT2B7) was 1870 ± 200 nM and the Inhibitory type (UGT2B7; UGT2B7) was “Competitive”. The activity at 10 µM (UGT2B7; [2]) was 27.2%, the IC50 (UGT1A1) was 530 ± 70 nM and the Ki (UGT1A1) was 1100 ± 80 nM. For the same compound, the Inhibitory type (UGT1A1) was “Non-competitive” and the activity at 10 µM (UGT1A1; [1]) was 13%.
In the case of `COc1ccc(-c2oc3c(CC=C(C)C)c(O)cc(O)c3c(=O)c2O)cc1` [Icaritin, icaritin], the IC50 (UGT1A1) is reported as 1280 ± 260 nM, the Ki (UGT1A1) is reported as 420 ± 170 nM and the Inhibitory type (UGT1A1) is reported as “Non-competitive”. It also gave an activity at 10 µM (UGT1A1; [1]) of 10.2%.
With `CC(C)=CCc1cc(-c2coc3cc(O)ccc3c2=O)ccc1O` [Neobavaisoflavone, neobavaisoflavone] the IC50 (UGT2B7) was 1170 ± 100 nM, the Ki (UGT2B7) was 390 ± 30 nM and the Inhibitory type (UGT2B7; UGT2B7) was “Mixed type”. The α (UGT2B7; UGT2B7, mixed-type inhibition model, αKi) was 5.15 ± 2.08, the activity at 10 µM (UGT2B7; [2]) was 10.2% and the IC50 (UGT1A10) was 3990 ± 670 nM. The Ki (UGT1A10) was 2600 ± 230 nM, the Inhibitory type (UGT1A10; UGT1A10) was “Competitive” and the activity at 10 µM (UGT1A10) was 31.1%. For the same compound, the IC50 (UGT1A1) was 2860 ± 140 nM, the Ki (UGT1A1) was 780 ± 160 nM and the Inhibitory type (UGT1A1) was “Non-competitive”. For the same compound, the activity at 10 µM (UGT1A1; [1]) was 7.42%.
`C=C[C@@](C)(/C=C/c1ccc(O)cc1)CCC=C(C)C` [Bakuchiol, bakuchiol] was tested, and the IC50 (UGT2B7) was 4550 ± 430 nM, the Inhibitory type (UGT2B7; UGT2B7) was “Competitive” and the activity at 10 µM (UGT2B7; [2]) was 35.5%.
In the case of `COc1ccc(-c2oc3c(CC=C(C)C)c(O[C@@H]4O[C@H](CO)[C@@H](O)[C@H](O)[C@H]4O)cc(O)c3c(=O)c2O[C@@H]2O[C@@H](C)[C@H](O)[C@@H](O)[C@H]2O)cc1` [Icariin, icariin], the IC50 (UGT1A10) is reported as 5940 ± 1240 nM, the Ki (UGT1A10) is reported as 9770 ± 820 nM and the activity at 10 µM (UGT1A10) is reported as 37.3%.
`CC(C)=CCc1cc2c(cc1O)oc(=O)c1c3ccc(O)cc3oc21` [Psoralidin, psoralidin] was tested, and the IC50 (UGT1A1) was 1950 ± 150 nM, the Ki (UGT1A1) was 980 ± 230 nM and the Inhibitory type (UGT1A1) was “Non-competitive”. For the same compound, the activity at 10 µM (UGT1A1; [1]) was 1.48%.
In the case of bavachinin, the “residual activity (Figures 3G–I, UGT2B7)” value (UGT2B7; 10 μM, % of negative control) is reported as 13.23%, the Inhibitory type (UGT2B7; UGT2B7) is reported as “Competitive” and the IC50 (UGT2B7; UGT2B7, substrate AZT) is reported as 2270 ± 260 nM. For the same compound, the Ki (UGT2B7; UGT2B7, substrate AZT) was 1110 ± 170 nM, the “residual activity of UGT1A10” value (UGT1A10; 10 μM, % of negative control) was 37.70% and the Inhibitory type (UGT1A10; UGT1A10) was “Competitive”. For the same compound, the IC50 (UGT1A10; UGT1A10, substrate 4-MU) was 5420 ± 640 nM and the Ki (UGT1A10; UGT1A10, substrate 4-MU) was 3290 ± 230 nM.
`Cc1cc(O)c2c(c1)C(=O)c1cc(O)cc(O)c1C2=O` [emodin, reference compound] was tested, and the activity at 10 µM (UGT1A10) was 52.4%.
